Experimental data from patent US20100278733A1, “COMPOSITION FOR DIAGNOSIS OF AMYLOID-RELATED DISEASE” (priority 2007, published 2010).
Values belong to the molecule of their own block, whether it stands above or below them.

Experiments:
[1] = biological target: T1, Aβ(1-42) aggregate (Homo sapiens, UniProt P05067); experiment: Binding inhibition experiment using Aβ(1-42) aggregate, Ki values (Example 2); conditions: compound numbers of Example 2; for Ki: radioactive ligand [^125I]CL-NMe2, mean ± standard error of 3 experiments (compound 4: 6 experiments), read-out: Ki values calculated by inhibition experiment; for binding affinity for the Aβ(1-42) aggregate: in words, derivatives with two substituents on Ring A
T1 construct: Amyloid β protein (Human, 1-42) [TFA form] was purchased from Peptide Institute, Inc; purchased Peptide Institute, Inc
T1 sequence (P05067 672-713 limits assumed): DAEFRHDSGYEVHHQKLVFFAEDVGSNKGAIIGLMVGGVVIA
Description: As a radioactive iodine-125 (^125I), Iodine-125 (3.7 GBq/mL) manufactured by MP Biomedicals, Inc. was used. Reverse phase HPLC was performed at a flow rate of 1.0 mL/min using a Cosmosil 5C18-AR-II column (4.6×150 mm) manufactured by Nacalai Tesque Inc. and ultrapure water:acetonitrile=3:7 as an elution solvent. ^1HNMR was measured using Varian Gemini 300 and tetramethylsilane as an internal standard substance. Mass spectrometry was performed using JEOL IMS-DX300. Preparative TLC was performed using 12 PLC plates 20×20-cm-Silica gel 60 F254, 2 mm manufactured by MERCK. Amyloid β protein (Human, 1-42) was purchased from Peptide Institute, Inc., and special grade reagents were used as other reagents.
Aβ(1-42) was dissolved in 10 mM phosphate buffer containing 1 mM EDTA (pH 7.4) at a concentration of 0.25 mg/mL, and the mixture was incubated at 37° C. for 42 h to prepare an Aβ(1-42) aggregate.
[…] of 10% EtOH solution, […] of a solution of [^125I]4-diethylamino-4′-iodochalcone ([^125I]CL-NMe2) in 10% ethanol, and […] of a sample solution at various concentrations (0 to 20 mM) were mixed, […] of an Aβ(1-42) aggregate solution was finally added, and the mixture was allowed to stand at room temperature for 3 h. Aβ(1-42) aggregate-bound compounds and nonbound compounds were separated with a Brandel M-24R cell harvester using a Whatman GF/B filter. Radioactivities remaining on the filter after filtration were measured with a γ-counter, and inhibition curves were created using Graph Pad Prism 4.0 to calculate inhibition constants (Ki values).

[2] = In-vivo radioactivity distribution experiment using normal mice (Example 2); conditions: normal mice, intravenous, Example 2 numbering
Description: Radioactive iodine labeling compounds were diluted with physiological saline containing 10% EtOH. To each of four or five 5-week-old male ddY mice (20 to 25 g) per group, […] of a labeled compound, [^125I]Compound 7, 10, 13, or 14 (0.2 to 0.4 mCi), was administered from the caudal vein. Animals were decapitated at 2, 10, 30, or 60 min, blood was collected, the major organs were isolated, and then weights and radioactivities thereof were measured.

[3] = In-vivo radioactivity distribution experiment in mice (Reference Example 1); conditions: intravenous, mean (standard deviation), Reference Example 1 numbering
Description: A radioactive iodine-labeled compound (Compound 7) was diluted with physiological saline containing 5 to 10% ethanol. Three to five 5-week-old male ddY mice (25 to 30 g) per group were decapitated at 2, 10, 30, or 60 min after intravenous administration of […] (0.5 to 1 μCi) of the labeled compound, blood was collected, organs were removed, and weights and radioactivities thereof were measured.

In-vivo radioactivity distribution: blood ([2]; 2 min): 1.76 (0.27) percent of the dose/g
In-vivo radioactivity distribution: brain ([2]; 2 min): 3.07 (0.57) percent of the dose/g
In-vivo radioactivity distribution: heart ([2]; 2 min): 5.00 (0.79) percent of the dose/g
In-vivo radioactivity distribution: intestine ([2]; 2 min): 2.52 (0.81) percent of the dose/g
In-vivo radioactivity distribution: kidney ([2]; 2 min): 6.20 (0.93) percent of the dose/g
In-vivo radioactivity distribution: liver ([2]; 2 min): 10.82 (2.61) percent of the dose/g
In-vivo radioactivity distribution: lung ([2]; 2 min): 11.10 (3.36) percent of the dose/g
In-vivo radioactivity distribution: pancreas ([2]; 2 min): 4.93 (1.01) percent of the dose/g
In-vivo radioactivity distribution: spleen ([2]; 2 min): 2.27 (0.48) percent of the dose/g
In-vivo radioactivity distribution: stomach ([2]; 2 min): 1.06 (0.67) percent of the dose
In-vivo radioactivity distribution: blood ([2]; 10 min): 1.43 (0.30) percent of the dose/g
In-vivo radioactivity distribution: brain ([2]; 10 min): 2.03 (0.41) percent of the dose/g
In-vivo radioactivity distribution: heart ([2]; 10 min): 1.98 (0.24) percent of the dose/g
In-vivo radioactivity distribution: intestine ([2]; 10 min): 7.78 (1.31) percent of the dose/g
In-vivo radioactivity distribution: kidney ([2]; 10 min): 4.56 (0.67) percent of the dose/g
In-vivo radioactivity distribution: liver ([2]; 10 min): 9.42 (1.92) percent of the dose/g
In-vivo radioactivity distribution: lung ([2]; 10 min): 4.94 (1.73) percent of the dose/g
In-vivo radioactivity distribution: pancreas ([2]; 10 min): 2.99 (1.70) percent of the dose/g
In-vivo radioactivity distribution: spleen ([2]; 10 min): 1.47 (0.27) percent of the dose/g
In-vivo radioactivity distribution: stomach ([2]; 10 min): 0.87 (0.38) percent of the dose
In-vivo radioactivity distribution: blood ([2]; 30 min): 1.15 (0.57) percent of the dose/g
In-vivo radioactivity distribution: brain ([2]; 30 min): 0.69 (0.09) percent of the dose/g
In-vivo radioactivity distribution: heart ([2]; 30 min): 0.98 (0.20) percent of the dose/g
In-vivo radioactivity distribution: intestine ([2]; 30 min): 17.52 (1.74) percent of the dose/g
In-vivo radioactivity distribution: kidney ([2]; 30 min): 3.92 (1.05) percent of the dose/g
In-vivo radioactivity distribution: liver ([2]; 30 min): 6.77 (1.21) percent of the dose/g
In-vivo radioactivity distribution: lung ([2]; 30 min): 2.22 (0.58) percent of the dose/g
In-vivo radioactivity distribution: pancreas ([2]; 30 min): 1.04 (0.35) percent of the dose/g
In-vivo radioactivity distribution: spleen ([2]; 30 min): 0.94 (0.48) percent of the dose/g
In-vivo radioactivity distribution: stomach ([2]; 30 min): 0.70(0.11) percent of the dose
In-vivo radioactivity distribution: blood ([2]; 60 min): 1.51 (0.26) percent of the dose/g
In-vivo radioactivity distribution: brain ([2]; 60 min): 0.40 (0.08) percent of the dose/g
In-vivo radioactivity distribution: heart ([2]; 60 min): 0.82 (0.14) percent of the dose/g
In-vivo radioactivity distribution: intestine ([2]; 60 min): 18.47 (2.31) percent of the dose/g
In-vivo radioactivity distribution: kidney ([2]; 60 min): 4.04 (1.10) percent of the dose/g
In-vivo radioactivity distribution: liver ([2]; 60 min): 6.01 (1.81) percent of the dose/g
In-vivo radioactivity distribution: lung ([2]; 60 min): 1.57 (0.23) percent of the dose/g
In-vivo radioactivity distribution: pancreas ([2]; 60 min): 0.78 (0.16) percent of the dose/g
In-vivo radioactivity distribution: spleen ([2]; 60 min): 0.71 (0.19) percent of the dose/g
In-vivo radioactivity distribution: stomach ([2]; 60 min): 1.14 (0.48) percent of the dose
Compound: CNc1ccc(C(=O)/C=C/c2ccc(I)cc2)cc1 [Compound 7 in Example 2, 4-iodo-4′-methylaminochalcone]

Ki [1]: 102 ± 15.9 nM
Compound: O=C(C=Cc1cccs1)c1ccc(I)cc1 [Compound 24 in Example 2, 1-(4-iodophenyl)-3-(2-thienyl)-prop-2-en-1-one]

Ki [1]: > 10000 nM
Compound: O=C(C=Cc1nccs1)c1ccc(I)cc1 [Compound 27 in Example 2, 1-(4-iodophenyl)-3-(thiazol-2-yl)-prop-2-en-1-one]

Ki [1]: 1130 ± 344 nM
Compound: CN(C)c1ccc(C=CC(=O)c2ccc(I)cc2)o1 [Compound 31 in Example 2, 1-(4-iodophenyl)-3-(5-dimethylamino-2-furanyl)-prop-2-en-1-one]

Ki [1]: 113 ± 10.1 nM
Compound: CN(C)c1ccc(C=CC(=O)c2ccc(I)cc2)s1 [Compound 33 in Example 2, 3-(5-dimethylamino-2-thienyl)-1-(4-iodophenyl)-prop-2-en-1-one]

Ki [1]: > 10000 nM
Compound: CN(C)c1ccc(C=CC(=O)c2ccc(Br)o2)o1 [Compound 34 in Example 2, 1-(5-bromo-2-furyl)-3-(5-dimethylamino-2-furyl)-prop-2-en-1-one]

Ki [1]: 1610 ± 84.5 nM
Compound: CN(C)c1ccc(C=CC(=O)c2ccc(I)s2)o1 [Compound 36 in Example 2, 3-(5-dimethylamino-2-furyl)-1-(5-iodo-2-thienyl)-prop-2-en-1-one]

Ki [1]: 1160 ± 154 nM
Compound: COc1cc(/C=C/C(=O)c2ccc(I)cc2)ccc1O [Compound 40 in Example 2, 4-hydroxy-4′-iodo-3-methoxychalcone]
binding affinity for the Aβ(1-42) aggregate [1]: no compound showed a high binding affinity

Ki [1]: 157 ± 80.8 nM
Compound: COc1ccc(/C=C/C(=O)c2ccc(I)cc2)cc1O [Compound 41 in Example 2, 3-hydroxy-4′-iodo-4-methoxychalcone]
binding affinity for the Aβ(1-42) aggregate [1]: no compound showed a high binding affinity

Continued, molecule first:

Compound: Nc1ccc(C=CC(=O)c2ccc(I)cc2)cc1 [CL-NH2, reference compound]
Ki [1]: 105 ± 12 nM

Compound: CNc1ccc(C=CC(=O)c2ccc(I)cc2)cc1 [CL-NHMe, reference compound]
Ki [1]: 6.3 ± 1.6 nM

Compound: COc1cc(/C=C/C(=O)c2cccc(I)c2)ccc1O [Compound 7 in Reference Example 1, (E)-3-(4-hydroxy-3-methoxyphenyl)-1-(3-iodophenyl)prop-2-en-1-one]
In-vivo distribution of radioactivity: Blood ([3]; 2 min): 4.90 (0.52) percents of the dose/g
In-vivo distribution of radioactivity: Brain ([3]; 2 min): 2.52 (0.20) percents of the dose/g
In-vivo distribution of radioactivity: Heart ([3]; 2 min): 5.58 (0.99) percents of the dose/g
In-vivo distribution of radioactivity: Intestines ([3]; 2 min): 2.50 (0.31) percents of the dose/g
In-vivo distribution of radioactivity: Kidneys ([3]; 2 min): 11.99 (3.60) percents of the dose/g
In-vivo distribution of radioactivity: Liver ([3]; 2 min): 15.71 (1.27) percents of the dose/g
In-vivo distribution of radioactivity: Spleen ([3]; 2 min): 2.57 (0.42) percents of the dose/g
In-vivo distribution of radioactivity: Blood ([3]; 10 min): 3.80 (0.91) percents of the dose/g
In-vivo distribution of radioactivity: Brain ([3]; 10 min): 1.28 (0.17) percents of the dose/g
In-vivo distribution of radioactivity: Heart ([3]; 10 min): 2.88 (1.02) percents of the dose/g
In-vivo distribution of radioactivity: Intestines ([3]; 10 min): 10.52 (1.82) percents of the dose/g
In-vivo distribution of radioactivity: Kidneys ([3]; 10 min): 9.16 (2.76) percents of the dose/g
In-vivo distribution of radioactivity: Liver ([3]; 10 min): 18.55 (2.68) percents of the dose/g
In-vivo distribution of radioactivity: Spleen ([3]; 10 min): 1.80 (0.30) percents of the dose/g
In-vivo distribution of radioactivity: Blood ([3]; 30 min): 1.84 (0.31) percents of the dose/g
In-vivo distribution of radioactivity: Brain ([3]; 30 min): 0.40 (0.11) percents of the dose/g
In-vivo distribution of radioactivity: Heart ([3]; 30 min): 1.44 (0.34) percents of the dose/g
In-vivo distribution of radioactivity: Intestines ([3]; 30 min): 20.60 (6.13) percents of the dose/g
In-vivo distribution of radioactivity: Kidneys ([3]; 30 min): 5.00 (2.27) percents of the dose/g
In-vivo distribution of radioactivity: Liver ([3]; 30 min): 7.67 (1.68) percents of the dose/g
In-vivo distribution of radioactivity: Spleen ([3]; 30 min): 1.03 (0.04) percents of the dose/g
In-vivo distribution of radioactivity: Blood ([3]; 60 min): 1.15 (0.44) percents of the dose/g
In-vivo distribution of radioactivity: Brain ([3]; 60 min): 0.35 (0.05) percents of the dose/g
In-vivo distribution of radioactivity: Heart ([3]; 60 min): 1.38 (0.34) percents of the dose/g
In-vivo distribution of radioactivity: Intestines ([3]; 60 min): 29.31 (3.26) percents of the dose/g
In-vivo distribution of radioactivity: Kidneys ([3]; 60 min): 4.31 (0.81) percents of the dose/g
In-vivo distribution of radioactivity: Liver ([3]; 60 min): 4.05 (0.61) percents of the dose/g
In-vivo distribution of radioactivity: Spleen ([3]; 60 min): 0.88 (0.15) percents of the dose/g

Compound: CN(C)c1ccc(C=CC(=O)c2ccc(Br)o2)cc1 [Compound 32 in Example 2, 1-(5-bromo-2-furanyl)-3-(4-dimethylaminophenyl)-prop-2-en-1-one]
Ki [1]: 126 ± 12.5 nM

Compound: CN(C)c1ccc(C=CC(=O)c2ccc(Br)o2)s1 [Compound 35 in Example 2, 1-(5-bromo-2-furyl)-3-(5-dimethylamino-2-thienyl)-prop-2-en-1-one]
Ki [1]: 2650 ± 221 nM

Compound: CN(C)c1ccc(C=CC(=O)c2ccc(I)s2)s1 [Compound 37 in Example 2, 3-(S-dimethylamino-2-thienyl)-1-(5-iodo-2-thienyl)-prop-2-en-1-one]
Ki [1]: 137 ± 3.4 nM

Compound: Nc1ccc(/C=C/C(=O)c2ccc(I)cc2)c(N)c1 [Compound 39 in Example 2, 2,4-diamino-4′-iodochalcone]
binding affinity for the Aβ(1-42) aggregate [1]: no compound showed a high binding affinity
